Like-named read-outs stand apart in the source and are kept apart here.
Assays:
A2780 cells = assay: Assay 2: In-Vitro Cell Proliferation Assay (A2780 cells, SRB readout, 72 hours); type: cell-based; settings: read-out: Cell Proliferation (IC50);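 further: viable cells counted via sulforhodamine B staining, absorbance at 570 nm, after 72 h exposure at 37 °C, DMSO 0.1% as control, media-only background subtracted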
NAMPT = NAMPT (Homo sapiens (Human), UniProt P43490); assay: Assay 1: Biochemical Inhibition Assay (NAMPT enzymatic reaction, NMN quantified by mass spectrometry);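 further: recombinant His-tagged human NAMPT preincubated with compound 15 min, then reacted 30 min at rt with 1 µM NAM, 100 µM PRPP, 2.5 mM ATP, NMN product read by RapidFire MS, normalized to L-Cystathionine internal standard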
[1] = Homo sapiens, A2780, 72 h, A2780 cells, 72 hours, SRB

NAMPT, sequence (P43490 whole entry): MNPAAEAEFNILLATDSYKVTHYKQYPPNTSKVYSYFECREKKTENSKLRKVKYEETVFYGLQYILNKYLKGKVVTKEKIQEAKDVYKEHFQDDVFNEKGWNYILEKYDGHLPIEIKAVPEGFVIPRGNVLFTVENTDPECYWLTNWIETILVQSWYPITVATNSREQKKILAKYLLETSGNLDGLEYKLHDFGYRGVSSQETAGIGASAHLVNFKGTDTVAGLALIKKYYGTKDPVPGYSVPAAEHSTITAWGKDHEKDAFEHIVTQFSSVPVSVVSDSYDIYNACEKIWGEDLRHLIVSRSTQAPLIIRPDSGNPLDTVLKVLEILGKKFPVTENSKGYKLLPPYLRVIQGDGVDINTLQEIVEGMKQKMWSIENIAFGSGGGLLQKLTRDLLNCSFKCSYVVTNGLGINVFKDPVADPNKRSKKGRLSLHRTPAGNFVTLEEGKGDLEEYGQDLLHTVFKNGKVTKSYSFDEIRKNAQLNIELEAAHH

| Molecule | IC50 (A2780 cells; A2780 cells, 72 hours, SRB) [nM] | IC50 (NAMPT; read-out: Biochemical (IC50)) [nM] | IC50 (A2780 cells; [1]) [nM] | IC50 (A2780 cells; Homo sapiens, A2780, 72 h) [nM] | IC50 (NAMPT; Biochemical (IC50)) [nM] |
| --- | --- | --- | --- | --- | --- |
| 1H-Pyrazolo[3,4- b]pyridine-5-carboxylic acid 4-(4-hydroxymethyl- piperidine-1-sulfonyl)- benzylamide [Example 174] | 84.4 | 152 |  |  |  |
| CC(C)(C)OC(=O)N1CCC2(CCCN(S(=O)(=O)c3ccc(CNC(=O)c4ccc5nccn5c4)cc3)C2)C1 (racemic) [Example 102, 7-(4-{[(Imidazo[1,2-a]pyridine-6-carbonyl)-amino]-methyl}-benzenesulfonyl)-2,7-diaza-spiro[4.5]decane-2-carboxylic acid tert-butyl ester] |  | 34.5 | 5.1 |  |  |
| CC(C)(C)OC(=O)N1CCCCC12CCCN(S(=O)(=O)c1ccc(CNC(=O)c3ccc4nccn4c3)cc1)C2 (racemic) [Example 123] |  | 37.4 | 17.2 |  |  |
| CC(C)(C)OC(=O)N1CCCC2(C1)CN(S(=O)(=O)c1ccc(CNC(=O)c3ccc4nccn4c3)cc1)CCO2 (racemic) [Example 126, 4-(4-{[(Imidazo[1,2-a]pyridine-6-carbonyl)-amino]-methyl}-benzenesulfonyl)-1-oxa-4,8-diaza-spiro[5.5]undecane-8-carboxylic acid tert-butyl ester] |  | 17.5 | 1.25 |  |  |
| CC(C)(C)OC(=O)N1C[C@H]2CN(S(=O)(=O)c3ccc(CNC(=O)c4ccc5nccn5c4)cc3)C[C@H]21 (racemic) [Example 128, cis-3-(4-{[(Imidazo[1,2-a]pyridine-6-carbonyl)-amino]-methyl}-benzenesulfonyl)-3,6-diaza-bicyclo[3.2.0]heptane-6-carboxylic acid tert-butyl ester] |  | 46.9 | 11.4 |  |  |
| CC(C)(C)OC(=O)N1C[C@@H]2OCCN(S(=O)(=O)c3ccc(CNC(=O)c4ccc5nccn5c4)cc3)[C@@H]2C1 (racemic) [Example 130, cis-4-(4-{[(Imidazo[1,2-a]pyridine-6-carbonyl)-amino]-methyl}-benzenesulfonyl)-hexahydro-pyrrolo[3,4-b][1,4]oxazine-6-carboxylic acid tert-butyl ester] | 11.3 | 75.8 |  |  |  |
| CC(C)(C)OC(=O)N[C@@]12C[C@@H]1CN(S(=O)(=O)c1ccc(CNC(=O)c3ccc4nccn4c3)cc1)C2 (racemic) [Example 132, cis-[3-(4-{[(Imidazo[1,2-a]pyridine-6-carbonyl)-amino]-methyl}-benzenesulfonyl)-3-aza-bicyclo[3.1.0]hex-1-yl]-carbamic acid tert-butyl ester] |  | 19.4 | 3.22 |  |  |
| CC(C)(C)OC(=O)N1CC2CN(S(=O)(=O)c3ccc(CNC(=O)c4ccc5nccn5c4)cc3)CC(C1)O2 (racemic) [Example 133, cis-7-(4-{[(Imidazo[1,2-a]pyridine-6-carbonyl)-amino]-methyl}-benzenesulfonyl)-9-oxa-3,7-diaza-bicyclo[3.3.1]nonane-3-carboxylic acid tert-butyl ester] |  | 330 | 96.9 |  |  |
| CC(C)(C)OC(=O)N1CC2OCCN(S(=O)(=O)c3ccc(CNC(=O)c4ccc5nccn5c4)cc3)C2C1 (racemic) [Example 134, cis-4-(4-{([(Imidazo[1,2-a]pyridine-6-carbonyl)-amino]-methyl}-benzenesulfonyl)-hexahydro-pyrrolo[3,4-b][1,4]oxazine-6-carboxylic acid tert-butyl ester] | 49.5 | 166 |  |  |  |
| CC(C)(C)OC(=O)N1C[C@H]2CCN(S(=O)(=O)c3ccc(CNC(=O)c4ccc5nccn5c4)cc3)[C@H]2C1 (racemic) [Example 135, cis-1-(4-{[(Imidazo[1,2-a]pyridine-6-carbonyl)-amino]-methyl}-benzenesulfonyl)-hexahydro-pyrrolo[3,4-b]pyrrole-5-carboxylic acid tert-butyl ester] |  | 20.2 | 5.52 |  |  |
| CC(C)(C)OC(=O)N1CC[C@@H]2CN(S(=O)(=O)c3ccc(CNC(=O)c4ccc5nccn5c4)cc3)C[C@@H]21 (racemic) [Example 136, cis-5-(4-{[(Imidazo[1,2-a]pyridine-6-carbonyl)-amino]-methyl}-benzenesulfonyl)-hexahydropyrrolo[3,4-b]pyrrole-1-carboxylic acid tert-butyl ester] |  | 43.7 | 39.1 |  |  |
| CC(C)(C)OC(=O)N1CC2CN(S(=O)(=O)c3ccc(CNC(=O)c4ccc5nccn5c4)cc3)CC2C1 (racemic) [Example 137, cis-5-(4-{[(Imidazo[1,2-a]pyridine-6-carbonyl)-amino]-methyl}-benzenesulfonyl)-hexahydro-pyrrolo[3,4-c]pyrrole-2-carboxylic acid tert-butyl ester] |  | 10.5 | 4.23 |  |  |
| O=C(NCc1ccc(S(=O)(=O)N2C3COCC2CC(O)C3)cc1)c1ccc2nccn2c1 (racemic) [Example 140, cis-Imidazo[1,2-a]pyridine-6-carboxylic acid 4-(7-hydroxy-3-oxa-9-aza-bicyclo[3.3.1]nonane-9-sulfonyl)-benzylamide] |  |  |  | 14.1 | 46.4 |
| O=C(NCc1ccc(S(=O)(=O)N2C[C@@H]3C[C@H]2CC3(F)F)cc1)c1ccc2nccn2c1 (racemic) [Example 141, cis-Imidazo[1,2-a]pyridine-6-carboxylic acid 4-(5,5-difluoro-2-aza-bicyclo[2.2.1]heptane-2-sulfonyl)-benzylamide] |  | 14.8 | 9.5 |  |  |
| CC(C)N1CCN(S(=O)(=O)c2ccc(CNC(=O)c3ccc4nccn4c3)cc2)CC1 [Example 18, Imidazo[1,2-a]pyridine-6-carboxylic acid 4-(4-isopropyl-piperazine-1-sulfonyl)-benzylamide] |  |  | 12.9 |  |  |
| CCN1CCC([S+]([O-])c2ccc(CNC(=O)c3ccc4nccn4c3)cc2)CC1 (centres unmarked) [Example 370, N-[[4-[(1-ethyl-4-piperidyl)sulfinyl]phenyl]methyl]imidazo[1,2-a]pyridine-6-carboxamide] |  |  | 13.4 |  |  |

Further lines, with some results ahead:

| IC50 (A2780 cells; A2780 cells, 72 hours, SRB) [nM] | IC50 (NAMPT; read-out: Biochemical (IC50)) [nM] | IC50 (A2780 cells; [1]) [nM] | Molecule | IC50 (A2780 cells; Homo sapiens, A2780, 72 h) [nM] | IC50 (NAMPT; Biochemical (IC50)) [nM] |
| --- | --- | --- | --- | --- | --- |
|  | 18.1 | 25.3 | O=C(NCc1ccc(S(=O)(=O)N2CCCC(O)C2)cc1)c1ccc2nccn2c1 (racemic) [Example 19, Imidazo[1,2-a)pyridine-6-carboxylic acid 4-(3-hydroxy-piperidine-1-sulfonyl)-benzylamide] |  |  |
|  | 7.7 | 861 | O=C(NCc1ccc(S(=O)(=O)N2CCCC(O)C2)cc1)c1cnc2nccn2c1 (racemic) [Example 32, Imidazo[1,2-a]pyrimidine-6-carboxylic acid 4-(3-hydroxy-piperidine-1-sulfonyl)-benzylamide] |  |  |
|  | 169 | 184 | O=C(NCc1ccc(S(=O)(=O)N2CCCC(O)C2)cc1)c1cnc2[nH]ncc2c1 (racemic) [Example 33, 1H-Pyrazolo[3,4-b]pyridine-5-carboxylic acid 4-(3-hydroxy-piperidine-1-sulfonyl)-benzylamide] |  |  |
|  | 25.7 | 51.9 | O=C(NCc1ccc(S(=O)(=O)N2CCCC(O)C2)cc1)c1cc2ccncc2o1 (racemic) [Example 34, Furo[2,3-c]pyridine-2-carboxylic acid 4-(3-hydroxy-piperidine-1-sulfonyl)-benzylamide] |  |  |
|  | 38.3 | 35.1 | O=C(NCc1ccc(S(=O)(=O)N2CCCC(O)C2)cc1)c1cc2cnccc2[nH]1 (racemic) [Example 35, 1H-Pyrrolo[3,2-c]pyridine-2-carboxylic acid 4-(3-hydroxy-piperidine-1-sulfonyl)-benzylamide] |  |  |
|  | 20.3 | 9.7 | CC(=O)N(C)C1CCN(S(=O)(=O)c2ccc(CNC(=O)c3ccc4nccn4c3)cc2)C1 (racemic) [Example 101, Imidazo[1,2-a]pyridine-6-carboxylic acid 4-[3-(acetyl-methyl-amino)-pyrrolidine-1-sulfonyl]-benzylamide] |  |  |
|  | 5.6 | 2.5 | O=C(NCc1ccc(S(=O)(=O)N2CCC(C(F)(F)F)C2)cc1)c1ccc2nccn2c1 (racemic) [Example 111, Imidazo[1,2-a]pyridine-6-carboxylic acid 4-(3-trifluoromethyl-pyrrolidine-1-sulfonyl)-benzylamide] |  |  |
|  | 14.5 | 10.3 | C[C@@H]1CN(S(=O)(=O)c2ccc(CNC(=O)c3ccc4nccn4c3)cc2)C[C@H]1O (racemic) [Example 139, trans-Imidazo[1,2-a]pyridine-6-carboxylic acid 4-(3-hydroxy-4-methyl-pyrrolidine-1-sulfonyl)-benzylamide] |  |  |
|  | 113 | 28.6 | CN1CC2CN(S(=O)(=O)c3ccc(CNC(=O)c4ccc5nccn5c4)cc3)CC(C1)O2 (racemic) [Example 142, cis-Imidazo[1,2-a]pyridine-6-carboxylic acid 4-(7-methyl-9-oxa-3,7-diaza-bicyclo[3.3.1]nonane-3-sulfonyl)-benzylamide] |  |  |
|  | 100 | 20.4 | CN1CC2CCN(S(=O)(=O)c3ccc(CNC(=O)c4ccc5nccn5c4)cc3)C2C1 (racemic) [Example 143, cis-Imidazo[1,2-a]pyridine-6-carboxylic acid 4-(5-methyl-hexahydro-pyrrolo[3,4-b]pyrrole-1-sulfonyl)-benzylamide] |  |  |
|  | 2000 |  | O=C(NCc1ccc(S(=O)(=O)N2CCCCC2)cc1)c1cnc2cn[nH]c2c1 [Example 49, 1H-Pyrazolo[4,3-b]pyridine-6-carboxylic acid 4-(piperidine-1-sulfonyl)-benzylamide] |  |  |
|  |  | 35.1 | O=C(NCc1ccc(S(=O)(=O)N2CCC(N3CCCC3)CC2)cc1)c1cnc2[nH]ncc2c1 [Example 156, 1 H-Pyrazolo[3,4-b]pyridine-5-carboxylic acid 4-(4-pyrrolidin-1-yl-piperidine-1-sulfonyl)-benzylamide] |  |  |
|  |  | 182 | O=C(NCc1ccc(S(=O)(=O)N2CC3COCC3C2)cc1)c1cnc2[nH]ncc2c1 (centres unmarked) [Example 158, 1H-Pyrazolo[3,4-b]pyridine-5-carboxylic acid 4-(tetrahydro-furo[3,4-c]pyrrole-5-sulfonyl)-benzylamide] |  |  |
